# Experimental data: patent publication US20230016182A1, “EO/PO-MODIFIED 9-PHENYLACRIDINE PHOTOSENSITIZERS AND APPLICATION THEREOF” (Changzhou Tronly New Electronic Materials Co., Ltd., priority 2019, published 2023)
# Test: Photosensitizer solubility test in 2-butanone and PGMEA
# Type: physicochemical
# Conditions: Test temperature 25° C.; for Solubility in 2-butanone: solvent 2-butanone
# Source text: Among them, 9-phenylacridine (denoted as C7, produced by CHANGZHOU TRONLY NEW ELECTRONIC MATERIALS CO., LTD.) was used for comparison.
compound,measurement,setting,value
COCCOCCOCCOc1ccc(-c2c3ccccc3nc3ccccc23)cc1 [Product C1],Solubility in 2-butanone,,21.10 g
"c1ccc(-c2c3ccccc3nc3ccccc23)cc1 [Product C7, 9-phenylacridine]",Solubility in 2-butanone,,0.74 g
same,Solubility in PGMEA,solvent PGMEA,0.51 g
